Test systems include A498 renal; IGROV1 ovarian; KM12 colon; NCI-H226 lung; NCI-H23 lung; NCI/ADR-RES ovarian; SK-MEL-5 melanoma; SN12C renal; SNB-75 CNS; T-47D breast.
Common to all, as to experiment: NCI-60 cell line screen, 48 h

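Each compound was tested at five concentrations against cells in 96-well plates for 48 hours. Here, GI50 denotes the concentration required for 50% inhibition of growth. TGI is the concentration that stops growth completely.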

As for `Cc1cc2c(cc1-c1cc3c(cc1C)C(C(C)C)=C(O)C(=O)/C3=C\Nc1nc(-c3ccccc3)cs1)/C(=C/Nc1nc(-c3ccccc3)cs1)C(=O)C(O)=C2C(C)C`, the TGI was 98.6 µM in the experiment with A498 renal; 53.4 µM with IGROV1 ovarian; > 100 µM in the experiment on KM12 colon; 58.4 µM in the experiment with NCI-H226 lung; 28.8 µM with NCI-H23 lung; 63.9 µM in the experiment on NCI/ADR-RES ovarian. Moreover, the TGI with SK-MEL-5 melanoma was 31.4 µM; in the experiment on SN12C renal, 48.4 µM; in the experiment with SNB-75 CNS, > 100 µM; with T-47D breast, > 100 µM.

For `O=c1c2ccccc2oc2c1ccc1ncccc12`, the TGI in the experiment on A498 renal was 25 µM; with IGROV1 ovarian it was 26.4 µM; in the experiment with KM12 colon, > 100 µM; in the experiment with NCI-H226 lung it was 38.9 µM; with NCI-H23 lung, > 100 µM; in the experiment on NCI/ADR-RES ovarian it was 36.3 µM. The TGI in the experiment on SK-MEL-5 melanoma is 28 µM; with SN12C renal, > 100 µM; with SNB-75 CNS it was 95.5 µM; in the experiment on T-47D breast, 31.2 µM.

Regarding `O=[N+]([O-])c1ccc2c(c1)nc(Cc1ccccc1)n2C[C@@H]1CCCN2CCCCC12` (stereo not given in full), the TGI was 33.2 µM in the experiment on A498 renal; > 100 µM with IGROV1 ovarian; 55.4 µM in the experiment with KM12 colon; > 100 µM in the experiment on NCI-H226 lung; > 100 µM in the experiment on NCI-H23 lung; > 100 µM with NCI/ADR-RES ovarian. Besides, the TGI with SK-MEL-5 melanoma was 31.4 µM; in the experiment with SN12C renal, > 100 µM; in the experiment on SNB-75 CNS, > 100 µM; with T-47D breast, > 100 µM.

Consider `CCN(CC)CCCCCCCCNc1c2ccc(Cl)cc2nc2ccc(OC)cc12`, for which the GI50 was 1.41 µM with A498 renal; 3.44 µM in the experiment on IGROV1 ovarian; 1.42 µM in the experiment with KM12 colon; 1.74 µM in the experiment with NCI-H226 lung; 2.28 µM in the experiment with NCI-H23 lung; 2.46 µM in the experiment with NCI/ADR-RES ovarian. For the same compound, the GI50 is 1.54 µM in the experiment on SK-MEL-5 melanoma, 1.64 µM in the experiment on SN12C renal, 1.49 µM in the experiment on SNB-75 CNS and 2.82 µM in the experiment with T-47D breast. The TGI turned out to be 2.78 µM with A498 renal; 20.5 µM in the experiment on IGROV1 ovarian; 3.92 µM in the experiment on KM12 colon; 3.74 µM in the experiment with NCI-H226 lung; 7.25 µM in the experiment on NCI-H23 lung; 10.3 µM with NCI/ADR-RES ovarian. For the same compound, the TGI stood at 2.89 µM with SK-MEL-5 melanoma, 3.73 µM with SN12C renal, 3.15 µM with SNB-75 CNS and 6.91 µM in the experiment with T-47D breast.

Take `COc1ccc(/C=N\N2CC(=O)N3C4C=CC(CC4)N3C2=O)cc1` (stereo not given): the TGI in the experiment on A498 renal, in the experiment on IGROV1 ovarian, with KM12 colon, in the experiment with NCI-H226 lung, in the experiment with NCI-H23 lung and in the experiment on NCI/ADR-RES ovarian was > 100 µM throughout. Besides, the TGI in the experiment on SK-MEL-5 melanoma, with SN12C renal, in the experiment with SNB-75 CNS and with T-47D breast was > 100 µM throughout.

Take `CSC1=Nc2ccccc2-c2nc(-c3ccccc3)cc(-c3ccccc3)c2C1`: the TGI in the experiment on A498 renal is > 100 µM; in the experiment with IGROV1 ovarian, 32.1 µM; with KM12 colon it was > 100 µM; in the experiment with NCI-H226 lung it was > 100 µM; with NCI-H23 lung, 33.5 µM; in the experiment with NCI/ADR-RES ovarian, > 100 µM. The TGI with SK-MEL-5 melanoma was 75.1 µM; in the experiment with SN12C renal it was > 100 µM; with SNB-75 CNS it was 16.8 µM; in the experiment with T-47D breast it was 76.4 µM.

As to `COc1cc2c(cc1OCCCC(=O)Nc1cc(C(=O)Nc3cc(C(=O)Nc4cc(C(=O)NCCCN(C)C)n(C)c4)n(C)c3)n(C)c1)N=C[C@@H]1CCCN1C2=O`, the TGI was 26.4 µM in the experiment with A498 renal; 8.74 µM in the experiment on IGROV1 ovarian; > 52.2 µM with KM12 colon; 37.9 µM in the experiment with NCI-H226 lung; 4.4 µM in the experiment on NCI-H23 lung; 6.21 µM in the experiment with NCI/ADR-RES ovarian. Also, the TGI with SK-MEL-5 melanoma came to 6.65 µM; in the experiment with SN12C renal it was 2.63 µM; in the experiment on SNB-75 CNS, 9.95 µM; with T-47D breast, 4 µM.

For the compound `Cc1cc(NS(=O)(=O)c2ccc(NC(=O)c3ccc4nc5ccccc5c(Nc5ccc(S(=O)(=O)N=C(N)N)cc5)c4c3)cc2)no1`, the TGI was found to be 33.7 µM in the experiment on A498 renal; 38.6 µM with IGROV1 ovarian; 32.2 µM in the experiment with KM12 colon; 28.5 µM in the experiment with NCI-H226 lung; 38.6 µM with NCI-H23 lung; 57.5 µM in the experiment on NCI/ADR-RES ovarian. Also, the TGI was found to be 30.5 µM with SK-MEL-5 melanoma, 34.4 µM in the experiment with SN12C renal, 51.9 µM with SNB-75 CNS and 34.4 µM with T-47D breast.

Regarding `NNC(=O)CC(=O)Nc1ccc(Cl)cc1`, the TGI with A498 renal, in the experiment with IGROV1 ovarian, with KM12 colon, in the experiment on NCI-H226 lung, with NCI-H23 lung and in the experiment with NCI/ADR-RES ovarian was > 100 µM each time. The TGI in the experiment on SK-MEL-5 melanoma, with SN12C renal, with SNB-75 CNS and in the experiment on T-47D breast was > 100 µM throughout.

On to `CCCC1NC(C#N)(C#N)C(CCC)NC1(C#N)C#N` (stereo not given), for which the TGI in the experiment on A498 renal was > 96.4 µM; in the experiment on IGROV1 ovarian it was > 62.2 µM; in the experiment with KM12 colon it was > 65.9 µM; in the experiment with NCI-H226 lung, 81.1 µM; with NCI-H23 lung, > 51.3 µM; in the experiment on NCI/ADR-RES ovarian, 15.2 µM. For the same compound, the TGI with SK-MEL-5 melanoma is > 100 µM; with SN12C renal, > 37 µM; in the experiment on SNB-75 CNS, > 41.1 µM; in the experiment with T-47D breast it was > 71.5 µM.

Take `O=C(NCC1Nc2ccncc2S(=O)(=O)N1)c1ccc(Br)cc1` (stereo not given): the TGI in the experiment on A498 renal, in the experiment with IGROV1 ovarian, in the experiment on KM12 colon, in the experiment on NCI-H226 lung, with NCI-H23 lung and with NCI/ADR-RES ovarian was > 100 µM in each case. In addition, the TGI in the experiment on SK-MEL-5 melanoma, with SN12C renal, in the experiment on SNB-75 CNS and in the experiment with T-47D breast was > 100 µM in each case.

Take `CC1(C)CCC[C@]2(C)[C@@H]1CC[C@@]13O[C@@H]1C1=C(CO)C(=O)O[C@]14O[C@@H]4[C@@H]23`: the TGI stood at 32.9 µM with A498 renal; 27.3 µM with IGROV1 ovarian; 63.8 µM with KM12 colon; 42.1 µM in the experiment on NCI-H226 lung; 28.4 µM in the experiment with NCI-H23 lung; 39.1 µM in the experiment with NCI/ADR-RES ovarian. Also, the TGI is 31.7 µM in the experiment with SK-MEL-5 melanoma, 20.5 µM in the experiment with SN12C renal, 30.6 µM in the experiment on SNB-75 CNS and > 100 µM with T-47D breast.

For the origin of these results see PubChem BioAssay (NCI).
